# Results as given in PMC11642016 (International Journal of Molecular Sciences, 2024).
# Values joined by “and” are separate entries in the source; they are usually repeats but may differ in a detail not shown here. Equal values may be shown once. Read-outs that look alike come from different tables or passages of the source.
# Experiments:
# PANC-1 and Fadu cells = assay: CellTiter-Glo viability, statements covering both cancer cell lines; assay type: cell-based, human; details: for viability at 25 µM: Homo sapiens, in either of the cancer cell lines, read-out: drop in viability at 25 µM
# Experimental: The effects of the synthesized compounds on cell viability were measured using the CellTiter-Glo® luminescent cell viability assay (Promega, Madison, WI, USA), according to the manufacturer’s instructions. […] After seeding, cells were incubated for a further 48 h before treatment. Cells were treated with the compounds for 72 h. […] After treatment, the luminescence signal was recorded using a microplate reader (BioTek Synergy 2 Multi-Mode Reader, BioTek, Winooski, VT, USA).
# Fadu cells = assay: CellTiter-Glo luminescent cell viability assay, Fadu; details: for viability at 2.8 µM: read-out: Cell Viability (% of Control) 2.8 µM, Fadu; for viability at 2.8 µM / viability at 8.3 µM / viability at 25 µM: mean ± SD, n = 2; for viability at 8.3 µM: read-out: Cell Viability (% of Control) 8.3 µM, Fadu; for viability at 25 µM: read-out: Cell Viability (% of Control) 25 µM, Fadu
# PANC-1 cells = assay: CellTiter-Glo luminescent cell viability assay, PANC-1; details: for viability at 2.8 µM: read-out: Cell Viability (% of Control) 2.8 µM, PANC-1; for viability at 2.8 µM / viability at 8.3 µM / viability at 25 µM: mean ± SD, n = 2; for viability at 8.3 µM: read-out: Cell Viability (% of Control) 8.3 µM, PANC-1; for viability at 25 µM: read-out: Cell Viability (% of Control) 25 µM, PANC-1
# [1] = CellTiter-Glo luminescent cell viability assay, primary fibroblasts; details: human, primary skin fibroblasts (non-tumorous), Primer fibroblast Cell viability (% of controll), 72 h, dose–response, individual replicates
# [2] = tested on: non-tumorous primary fibroblast cells; assay: as above; details: 72 h; for Primer fibroblast Cell viability (% of controll): dose–response, individual replicates
# [3] = Homo sapiens, FaDu, 72 h, 72 h, first-set screening
# [4] = Homo sapiens, FaDu, 72 h, 72 h, second-set screening
# [5] = Homo sapiens, PANC-1, 72 h, 72 h, first-set screening
# [6] = Homo sapiens, PANC-1, 72 h, 72 h, second-set screening
# [7] = 0.7 μM, 72 h, dose–response, individual replicates
# [8] = 1 μM, 72 h, dose–response, individual replicates
# [9] = 2.3 μM, 72 h, dose–response, individual replicates
# [10] = 3.4 μM, 72 h, dose–response, individual replicates
# [11] = 5.1 μM, 72 h, dose–response, individual replicates
# [12] = 7.7 μM, 72 h, dose–response, individual replicates
# [13] = 17.3 μM, 72 h, dose–response, individual replicates
# [14] = 26 μM, 72 h, dose–response, individual replicates
smiles,measurement,setting,value
NCC#Cc1cccc(CN2C(=O)C3=C(CCN(Cc4ccc(-n5cc(-c6ccccc6)nn5)cc4)C3)N3CCN=C23)c1 [2b],eradication of cancer cells at 8.3 µM,"PANC-1 and Fadu cells; 8.3 µM, both PANC-1 and Fadu, first-set screening",practically complete eradication of both types of cancer cells
same,viability at 25 µM,PANC-1 and Fadu cells,0 to 1%
same,viability at 2.8 µM,Fadu cells; [3],102 ± 8%
same,viability at 2.8 µM,Fadu cells; [4],117 ± 7%
same,viability at 8.3 µM,Fadu cells; [3],0%
same,viability at 8.3 µM,Fadu cells; [4],27 ± 12%
same,viability at 25 µM,Fadu cells; [3],0%
same,viability at 25 µM,Fadu cells; [4],0%
same,viability at 2.8 µM,PANC-1 cells; [5],107 ± 1%
same,viability at 2.8 µM,PANC-1 cells; [6],113 ± 3%
same,viability at 8.3 µM,PANC-1 cells; [5],0%
same,viability at 8.3 µM,PANC-1 cells; [6],0%
same,viability at 25 µM,PANC-1 cells; [5],0%
same,viability at 25 µM,PANC-1 cells; [6],0%
NCC#Cc1cccc(CN2C(=O)C3=C(CCN(Cc4cccc(-n5cc(-c6ccccc6)nn5)c4)C3)N3CCN=C23)c1 [4b],viability at 25 µM,PANC-1 and Fadu cells,0 to 1%
same,viability at 2.8 µM,Fadu cells; [3],76 ± 1%
same,viability at 8.3 µM,Fadu cells; [3],34 ± 3%
same,viability at 25 µM,Fadu cells; [3],0%
same,viability at 2.8 µM,PANC-1 cells; [5],87 ± 5%
same,viability at 8.3 µM,PANC-1 cells; [5],70%
same,viability at 25 µM,PANC-1 cells; [5],0%
CNCC#Cc1cccc(CN2C(=O)C3=C(CCN(Cc4ccc(-n5cc(-c6cc(F)cc(F)c6)nn5)cc4)C3)N3CCN=C23)c1 [43c],Fadu Cell viability (% of controll),Fadu cells; [7],99 % of controll and 100 % of controll
same,Fadu Cell viability (% of controll),Fadu cells; [8],102 % of controll and 93 % of controll
same,Fadu Cell viability (% of controll),Fadu cells; [9],90 % of controll and 79 % of controll
same,Fadu Cell viability (% of controll),Fadu cells; [10],79 % of controll and 59 % of controll and 42 % of controll
same,Fadu Cell viability (% of controll),Fadu cells; [11],0 % of controll
same,Fadu Cell viability (% of controll),Fadu cells; [12],0 % of controll
same,Fadu Cell viability (% of controll),Fadu cells; [13],0 % of controll
same,Fadu Cell viability (% of controll),Fadu cells; [14],0 % of controll
same,viability at 0.7 µM,"Fadu cells; Homo sapiens, FaDu, 72 h, read-out: Fadu Cell viability (% of controll), 0.7 μM, 72 h, dose–response, individual replicates",94%
same,viability at 1 µM,"Fadu cells; Homo sapiens, FaDu, 72 h, read-out: Fadu Cell viability (% of controll), 1 μM, 72 h, dose–response, individual replicates",97%
same,viability at 1.5 µM,"Fadu cells; Homo sapiens, FaDu, 72 h, read-out: Fadu Cell viability (% of controll), 1.5 μM, 72 h, dose–response, individual replicates",90%
same,viability at 2.3 µM,"Fadu cells; Homo sapiens, FaDu, 72 h, read-out: Fadu Cell viability (% of controll), 2.3 μM, 72 h, dose–response, individual replicates",89%
same,viability at 5.1 µM,"Fadu cells; Homo sapiens, FaDu, 72 h, read-out: Fadu Cell viability (% of controll), 5.1 μM, 72 h, dose–response, individual replicates",0%
same,viability at 7.7 µM,"Fadu cells; Homo sapiens, FaDu, 72 h, read-out: Fadu Cell viability (% of controll), 7.7 μM, 72 h, dose–response, individual replicates",0%
same,viability at 17.3 µM,"Fadu cells; Homo sapiens, FaDu, 72 h, read-out: Fadu Cell viability (% of controll), 17.3 μM, 72 h, dose–response, individual replicates",0%
same,viability at 26 µM,"Fadu cells; Homo sapiens, FaDu, 72 h, read-out: Fadu Cell viability (% of controll), 26 μM, 72 h, dose–response, individual replicates",0%
same,IC50,"Fadu cells; Homo sapiens, FaDu, 72 h, read-out: IC50 Value ± SEM Fadu, 72 h treatment, best-fit values, n = 3",3.6 ± 0.09 µM
same,IC50,"Fadu cells; Homo sapiens, FaDu, read-out: Fadu IC50 values, Mean, mean of independently fitted replicate IC50 values (Supplement S.6)",3.48 µM
same,Selectivity Index (SI) Fibroblast/Fadu,Fadu cells; ratio of mean best-fit IC50 for primary fibroblasts and best-fit IC50 for Fadu,1.0
same,PANC-1 Cell viability (% of controll),PANC-1 cells; [7],110 % of controll and 102 % of controll
same,PANC-1 Cell viability (% of controll),PANC-1 cells; [8],99 % of controll and 105 % of controll
same,PANC-1 Cell viability (% of controll),"PANC-1 cells; 1.5 μM, 72 h, dose–response, individual replicates",103 % of controll
same,PANC-1 Cell viability (% of controll),PANC-1 cells; [9],80 % of controll and 82 % of controll
same,PANC-1 Cell viability (% of controll),PANC-1 cells; [10],5 % of controll and 8 % of controll
same,PANC-1 Cell viability (% of controll),PANC-1 cells; [11],0 % of controll
same,PANC-1 Cell viability (% of controll),PANC-1 cells; [12],0 % of controll
same,PANC-1 Cell viability (% of controll),PANC-1 cells; [13],0 % of controll
same,PANC-1 Cell viability (% of controll),PANC-1 cells; [14],0 % of controll
same,IC50,"PANC-1 cells; Homo sapiens, PANC-1, 72 h, read-out: IC50 Value ± SEM PANC-1, 72 h treatment, best-fit values, n = 3",2.6 ± 0.03 µM
same,viability at 0.7 µM,"PANC-1 cells; Homo sapiens, PANC-1, 72 h, read-out: PANC-1 Cell viability (% of controll), 0.7 μM, 72 h, dose–response, individual replicates",104%
same,viability at 1 µM,"PANC-1 cells; Homo sapiens, PANC-1, 72 h, read-out: PANC-1 Cell viability (% of controll), 1 μM, 72 h, dose–response, individual replicates",104%
same,viability at 1.5 µM,"PANC-1 cells; Homo sapiens, PANC-1, 72 h, read-out: PANC-1 Cell viability (% of controll), 1.5 μM, 72 h, dose–response, individual replicates",100%
same,viability at 2.3 µM,"PANC-1 cells; Homo sapiens, PANC-1, 72 h, read-out: PANC-1 Cell viability (% of controll), 2.3 μM, 72 h, dose–response, individual replicates",89%
same,viability at 3.4 µM,"PANC-1 cells; Homo sapiens, PANC-1, 72 h, read-out: PANC-1 Cell viability (% of controll), 3.4 μM, 72 h, dose–response, individual replicates",6%
same,viability at 5.1 µM,"PANC-1 cells; Homo sapiens, PANC-1, 72 h, read-out: PANC-1 Cell viability (% of controll), 5.1 μM, 72 h, dose–response, individual replicates",0%
same,viability at 7.7 µM,"PANC-1 cells; Homo sapiens, PANC-1, 72 h, read-out: PANC-1 Cell viability (% of controll), 7.7 μM, 72 h, dose–response, individual replicates",0%
same,viability at 17.3 µM,"PANC-1 cells; Homo sapiens, PANC-1, 72 h, read-out: PANC-1 Cell viability (% of controll), 17.3 μM, 72 h, dose–response, individual replicates",0%
same,viability at 26 µM,"PANC-1 cells; Homo sapiens, PANC-1, 72 h, read-out: PANC-1 Cell viability (% of controll), 26 μM, 72 h, dose–response, individual replicates",0%
same,IC50,"PANC-1 cells; Homo sapiens, PANC-1, read-out: PANC-1 IC50 values, Mean, mean of independently fitted replicate IC50 values (Supplement S.6)",2.63 µM
same,Selectivity Index (SI) Fibroblast/PANC-1,PANC-1 cells; ratio of mean best-fit IC50 for primary fibroblasts and best-fit IC50 for PANC-1,1.4
same,"viability at 72 h, 0.7 µM",[1]; 0.7 μM,91%
same,"viability at 72 h, 1 µM",[1]; 1 μM,92%
same,"viability at 72 h, 2.3 µM",[1]; 2.3 μM,103%
same,"viability at 72 h, 3.4 µM",[1]; 3.4 μM,80%
same,"viability at 72 h, 5.1 µM",[1]; 5.1 μM,0%
same,"viability at 72 h, 7.7 µM",[1]; 7.7 μM,0%
same,"viability at 72 h, 17.3 µM",[1]; 17.3 μM,0%
same,"viability at 72 h, 26 µM",[1]; 26 μM,0%
same,Primer fibroblast Cell viability (% of controll),[2]; 0.7 μM,98 % of controll and 102 % of controll
same,Primer fibroblast Cell viability (% of controll),[2]; 1 μM,104 % of controll and 106 % of controll
same,Primer fibroblast Cell viability (% of controll),[2]; 1.5 μM,99 % of controll and 95 % of controll and 118 % of controll
same,Primer fibroblast Cell viability (% of controll),[2]; 2.3 μM,97 % of controll and 98 % of controll
same,Primer fibroblast Cell viability (% of controll),[2]; 3.4 μM,95 % of controll and 99 % of controll
same,Primer fibroblast Cell viability (% of controll),[2]; 5.1 μM,0 % of controll
same,Primer fibroblast Cell viability (% of controll),[2]; 7.7 μM,0 % of controll
same,Primer fibroblast Cell viability (% of controll),[2]; 17.3 μM,0 % of controll
same,Primer fibroblast Cell viability (% of controll),[2]; 26 μM,0 % of controll
same,IC50,"[2]; Homo sapiens, Fibroblast, read-out: IC50 Value ± SEM Primary Fibroblast, 72 h treatment, best-fit values, n = 3",3.7 ± 1.73 µM
